# Laboratory results: ChEMBL document CHEMBL4043236, “Design and synthesis of novel PRMT1 inhibitors and investigation of their binding preferences using molecular modelling” (Bioorg Med Chem Lett, 2017)
# Key:
# [1] = biological target: T1, Protein arginine N-methyltransferase 1 (Homo sapiens, UniProt Q99873); experiment: (§1) Inhibition of recombinant human N-terminal GST-tagged PRMT1 (2 to end residues) expressed in baculovirus infected Sf9 insect cells at 9 uM using biotinylated histone H4 peptide as substrate preincubated for 15 mins followed by substrate/[3H]-SAM addition measured after 60 mins by microbeta liquid scintillation counting analysis
# Target sequence in this assay (Q99873 whole entry, looked up): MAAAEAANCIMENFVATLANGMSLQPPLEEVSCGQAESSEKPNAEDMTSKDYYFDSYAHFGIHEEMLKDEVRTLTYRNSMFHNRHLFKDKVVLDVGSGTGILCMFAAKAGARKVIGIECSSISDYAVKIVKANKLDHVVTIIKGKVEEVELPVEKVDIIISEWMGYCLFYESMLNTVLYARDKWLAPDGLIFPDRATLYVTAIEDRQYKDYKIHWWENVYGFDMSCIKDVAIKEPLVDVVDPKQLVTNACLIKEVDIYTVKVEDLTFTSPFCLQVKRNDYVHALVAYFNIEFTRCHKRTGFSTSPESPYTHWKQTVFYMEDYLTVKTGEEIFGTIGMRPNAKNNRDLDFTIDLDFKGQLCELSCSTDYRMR
# Daoy = experiment: Cytotoxicity against human DaOY cells assessed as reduction in cell viability after 72 hrs by CellTiter-blue assay; type: functional, cell-based
# HepG2 = experiment: Cytotoxicity against human HepG2 cells assessed as reduction in cell viability after 72 hrs by CellTiter-blue assay; type: functional, cell-based; settings: HepG2, 72 h
# [2] = biological target: T1, Protein arginine N-methyltransferase 1; experiment: as §1, with “cells” for “cells at 9 uM”
# Target sequence in this assay (Q99873 whole entry): as the sequence (Q99873 whole entry, looked up) above
# MCF7 = experiment: Cytotoxicity against human MCF7 cells assessed as reduction in cell viability after 72 hrs by CellTiter-blue assay; type: functional, cell-based; settings: MCF7, 72 h
# [3] = biological target: T1, Protein arginine N-methyltransferase 1; experiment: Potency index, ratio of AMI-1 IC50 to compound IC50 for recombinant human N-terminal GST-tagged PRMT1 (2 to end residues) expressed in baculovirus infected Sf9 insect cells
# Target sequence in this assay (Q99873 whole entry, looked up): as above
inhibition [1] [%],SMILES,also measured
90,Nc1ncnc2c1ncn2[C@@H]1O[C@H](CSCC[C@H](N)C(=O)O)[C@@H](O)[C@H]1O,–
6,CNCCN(C)c1nnnn1Cc1ccc(C#N)cc1,–
38,CNCCN(C)Cc1ccc(-c2ccc(OC)cc2)o1,–
37,CN(CCN)Cc1ccc(-c2ccc(C(F)(F)F)cc2)o1,–
5,CNCCN(C)c1nnnn1Cc1ccc(OC(F)(F)F)cc1,–
12,CNCCN(C)c1nnnn1Cc1cccc(OC(F)(F)F)c1,–
25,COc1ccc(-c2ccc(CN(C)CCN)o2)cc1,–
1,FC(F)(F)c1cccc(Cn2nnnc2N2CCNCC2)c1,–
30,COC(=O)c1ccc(-c2ccc(CN(C)CCN)o2)cc1,–
31,CN(CCN)Cc1ccc(-c2cccc(C(F)(F)F)c2)o1,–
0,CNCCN(C)c1nnnn1Cc1ccc(OC)cc1,–
13,CNCCN(C)c1nnnn1Cc1ccccc1C(F)(F)F,–
43,CNCCN(C)Cc1ccc(-c2ccc(C(F)(F)F)cc2)o1,IC50 (Daoy): 72.8 µM; IC50 (HepG2): 36.4 µM; IC50 [2]: 8.2 µM; IC50 (MCF7): 49.8 µM; Ratio IC50 [3]: 3
9,CNCCN(C)c1nnnn1Cc1ccccc1OC(F)(F)F,–
8,CNCCN(C)c1nnnn1Cc1cccc(C(F)(F)F)c1,–
2,CNCCN(C)c1nnnn1Cc1ccc(C(F)(F)F)cc1,–
32,CNCCN(C)Cc1ccc(-c2ccc(C(=O)OC)cc2)o1,–
46,CN(CCN)Cc1ccc(-c2cccc(OC(F)(F)F)c2)o1,IC50 (Daoy): > 100 µM; IC50 (HepG2): > 100 µM; IC50 [2]: 14 µM; IC50 (MCF7): > 100 µM
51,CNCCN(C)Cc1ccc(-c2cccc(C(=O)OC)c2)o1,IC50 (Daoy): 71.2 µM; IC50 (HepG2): 74.1 µM; IC50 [2]: 14 µM; IC50 (MCF7): > 100 µM
38,CN(CCN)Cc1ccc(-c2cccc(C#N)c2)o1,–
–,O=C(Nc1ccc2c(O)cc(S(=O)(=O)O)cc2c1)Nc1ccc2c(O)cc(S(=O)(=O)O)cc2c1,IC50 (Daoy): > 100 µM; IC50 (HepG2): 51.2 µM; IC50 (MCF7): > 100 µM
43,CNCCN(C)Cc1ccc(-c2cccc(C(F)(F)F)c2)o1,IC50 (Daoy): 69.8 µM; IC50 (HepG2): 34.5 µM; IC50 [2]: 14 µM; IC50 (MCF7): 61.1 µM
35,CNCCN(C)Cc1ccc(-c2ccc(C#N)cc2)o1,–
40,CNCCN(C)Cc1ccc(-c2ccc(OC(F)(F)F)cc2)o1,IC50 (Daoy): 24.3 µM; IC50 (HepG2): 24.2 µM; IC50 [2]: 17 µM; IC50 (MCF7): 30.6 µM
25,CN(CCN)Cc1ccc(-c2ccc(OC(F)(F)F)cc2)o1,–
33,CNCCN(C)Cc1ccc(-c2cccc(C#N)c2)o1,–
41,CNCCN(C)Cc1ccc(-c2cccc(OC(F)(F)F)c2)o1,IC50 (Daoy): 23.6 µM; IC50 (HepG2): 23 µM; IC50 [2]: 14 µM; IC50 (MCF7): 64.4 µM
38,COC(=O)c1cccc(-c2ccc(CN(C)CCN)o2)c1,–
24,COc1cccc(-c2ccc(CN(C)CCN)o2)c1,–
37,CNCCN(C)Cc1ccc(-c2cccc(OC)c2)o1,–
